Measurements from patent publication US20240122180A1, “FUNGICIDAL HALOMETHYL KETONES AND HYDRATES AND THEIR MIXTURES” (FMC Corporation, priority 2020, published 2024).
Blank lines part the entries; values can stand above or below the compound they belong to.

Key:
[1] = tested on: Puccinia recondita f. sp. tritici (the causal agent of wheat leaf rust); assay: Test B: preventive spray on wheat seedlings, disease rating (100 = 100% control; * 50 ppm, ** 10 ppm, *** 250 ppm); assay type: in vivo; settings: Puccinia recondita, 100 = 100% disease control; for pest or weed control at 10 ppm: 10 ppm test suspension; for pest or weed control at 50 ppm: 50 ppm test suspension
Summary of the method: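 Wheat seedlings sprayed to run-off with compound in acetone/water (50/50) containing 250 ppm PEG400, inoculated next day with Puccinia recondita f. sp. tritici spores. Held 24 h saturated at 20° C, then 6 days at 20° C; disease control rated 0–100 relative to controls.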

[2] = tested on: Zymoseptoria tritici (the causal agent of wheat leaf blotch); assay: Test D: preventive spray on wheat seedlings, disease rating (100 = 100% control; * 50 ppm, ** 10 ppm, *** 250 ppm); assay type: in vivo; settings: Zymoseptoria tritici, 250 ppm test suspension, 100 = 100% disease control
Summary of the method: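 Compounds first dissolved in acetone (3% of final volume), then suspended in 50/50 acetone/water with 250 ppm PEG400 and sprayed to run-off on wheat seedlings; Z. tritici spores inoculated next day. Incubated saturated at 24° C. 48 h, then 20° C. 17 days; disease control rated 0–100 versus controls.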

[3] = tested on: Blumeria graminis f. sp. tritici (the causal agent of wheat powdery mildew); assay: Test E: preventive spray on wheat seedlings, visual disease rating (100 = 100% control; * 50 ppm, ** 10 ppm, *** 250 ppm); assay type: in vivo; settings: Blumeria graminis, 250 ppm test suspension, 100 = 100% disease control
Summary of the method: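 Test suspension (3% acetone, acetone/water 50/50, 250 ppm PEG400) sprayed to run-off on wheat seedlings; inoculated next day with powdery mildew spore dust and kept 8 days at 20 °C. Visual rating, 100 = full and 0 = no control relative to untreated.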

[4] = tested on: Uncinula necator (the causal agent of grape powdery mildew); assay: Test C: preventive spray on grape seedlings, disease rating (100 = 100% control; * 50 ppm, ** 10 ppm, *** 250 ppm); assay type: in vivo; settings: Erysiphe necator, 100 = 100% disease control
Summary of the method: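 Grape seedlings sprayed to run-off with compound suspended in acetone/water (50/50) with 250 ppm PEG400, then inoculated next day with Uncinula necator spores. Kept at 20 °C for 12 days before disease rating, where 100 is full control and 0 none, relative to untreated controls.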

[5] = tested on: Phakopsora pachyrhizi (the causal agent of Asian soybean rust); assay: Test F: Compound 32 or 64 alone and in mixtures on soybean seedlings, observed (Obsd) and Colby expected (Exp) disease control; assay type: in vivo; settings: for pest or weed control at 1.422 ppm: Compound 32 1.422 ppm alone; for pest or weed control at 2.276 ppm: Compound 32 2.276 ppm alone
Text: The general protocol for preparing test compositions for Test F was as follows: Compound 32, Compound 64, azoxystrobin, benzovindiflupyr, bixafen, chlorothalonil, cyproconazole, epoxiconazole, fenpropidin, fenpropimorph, fluindapyr, flutriafol, fluxapyroxad, metominostrobin, picoxystrobin, prothioconazole, pydiflumetofen, pyraclostrobin, tebuconazole and trifloxystrobin were obtained as unformulated, technical-grade materials. Copper hydroxide and mancozeb was obtained as a formulated product marketed under the trademarks KOCIDE 3000 and MANZATE, respectively. Unformulated materials were first dissolved in acetone and then suspended at the desired concentration (in ppm) in acetone and purified water (50/50 mix by volume) containing 250 ppm of the surfactant Trem® 014 (polyhydric alcohol esters). Formulated materials were dispersed in sufficient water to give the desired concentration, and neither organic solvent nor surfactant was added to the suspension. The resulting test mixtures were then used in Test F. The tests were run on four individual plants and the results reported as the mean average of the four plants.
The presence of a synergistic effect between two active ingredients was established with the aid of the Colby equation (see Colby, S. R. “Calculating Synergistic and Antagonistic Responses of Herbicide Combinations”, Weeds, (1967), 15, 20-22):
Using the method of Colby, the presence of a synergistic interaction between two active ingredients is established by first calculating the predicted activity, p, of the mixture based on activities of the two components applied alone. If p is lower than the experimentally established effect, synergism has occurred. In the equation above, A is the fungicidal activity in percentage control of one component applied alone at rate x. The B term is the fungicidal activity in percentage control of the second component applied at rate y. The equation estimates p, the expected fungicidal activity of the mixture of A at rate x with B at rate y if their effects are strictly additive and no interaction has occurred.
The test mixture was sprayed to the point of run-off on soybean seedlings. The following day the seedlings were inoculated with a spore suspension of Phakopsora pachyrhizi (the causal agent of Asian soybean rust) and incubated in a saturated atmosphere at 22° C. for 24 h and then moved to a growth chamber at 22° C. for 8 days, after which time visual disease ratings were made.
Results for Test F are given in Tables B-1 through I-1 for Compound 32 and Tables B-2 through I-2 for Compound 64. Each table corresponds to a set of evaluations performed together at the same time. In each table, a rating of 100 indicates 100% disease control and a rating of 0 indicates no disease control (relative to the controls). Columns labeled “Obsd” indicate the average of results observed from test run on four individual plants. Columns labeled “Exp” indicate the expected value for each treatment mixture using the Colby equation.

[6] = tested on: Phakopsora pachyrhizi (the causal agent of Asian soybean rust); assay: Test A: preventive spray on soybean seedlings, visual disease rating (100 = 100% control; * 50 ppm, ** 10 ppm, *** 250 ppm); assay type: in vivo; settings: Phakopsora pachyrhizi, 100 = 100% disease control, 0 = no control; for pest or weed control at 10 ppm: 10 ppm test suspension
Summary of the method: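 Soybean seedlings sprayed to run-off with compound suspended in acetone/water with 250 ppm PEG400 surfactant, inoculated next day with P. pachyrhizi spores. Kept 24 h saturated at 22 °C, then 8 days at 22 °C before visual rating of disease control (0-100) relative to controls.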

[7] = Phakopsora pachyrhizi, Table B-1
[8] = Phakopsora pachyrhizi, Table C-1
[9] = Phakopsora pachyrhizi, Table D-1
[10] = Phakopsora pachyrhizi, Table F-1
[11] = Phakopsora pachyrhizi, Table G-1
[12] = Phakopsora pachyrhizi, Table H-1
[13] = Phakopsora pachyrhizi, Table I-1

SMILES: CCO/C(=C\Oc1ccc(Cn2cc(C(=O)OCc3ccccc3)cn2)cc1)C(F)(F)F [Compound 186, phenylmethyl 1-[[4-[[(1Z)-2-ethoxy-3,3,3-trifluoro-1-propen-1-yl]oxy]phenyl]methyl]-1H-pyrazole-4-carboxylate]
pest or weed control at 10 ppm ([1]; wheat seedlings): 0%
pest or weed control at 250 ppm ([2]; wheat seedlings): 9%
pest or weed control at 250 ppm ([3]; wheat seedlings): 84%
melting point: 63 to 67 °C

SMILES: CCOC(=O)c1cnn(Cc2ccc(OCC3(C(F)(F)F)OCCO3)cc2)c1 [Compound 32, ethyl 1-[[4-[[2-(trifluoromethyl)-1,3-dioxolan-2-yl]methoxy]phenyl]methyl]-1H-pyrazole-4-carboxylate]
pest or weed control at 50 ppm ([1]; wheat seedlings): 68%
pest or weed control at 10 ppm ([4]; 10 ppm test suspension (**), grape seedlings): 100%
pest or weed control at 250 ppm ([2]; wheat seedlings): 89%
pest or weed control at 250 ppm ([3]; wheat seedlings): 97%
pest or weed control at 1.422 ppm ([5]; Table E-1): 78%
pest or weed control at 2.276 ppm ([5]; Table E-1): 80%
pest or weed control at 1.422 ppm [5, 7]: 55%
pest or weed control at 1.422 ppm [5, 8]: 39%
pest or weed control at 1.422 ppm [5, 9]: 52%
pest or weed control at 1.422 ppm [5, 10]: 75%
pest or weed control at 1.422 ppm [5, 11]: 39%
pest or weed control at 1.422 ppm [5, 12]: 69%
pest or weed control at 1.422 ppm [5, 13]: 63%
pest or weed control at 2.276 ppm [5, 7]: 64%
pest or weed control at 2.276 ppm [5, 8]: 44%
pest or weed control at 2.276 ppm [5, 9]: 60%
pest or weed control at 2.276 ppm [5, 10]: 77%
pest or weed control at 2.276 ppm [5, 11]: 61%
pest or weed control at 2.276 ppm [5, 12]: 63%
pest or weed control at 2.276 ppm [5, 13]: 71%

SMILES: O=C(NCC1CC1)c1csc(Cc2ccc(OCC3(C(F)(F)F)OCCO3)cc2)n1 [Compound 71, N-(cyclopropylmethyl)-2-[[4-[[2-(trifluoromethyl)-1,3-dioxolan-2-yl]methoxy]phenyl]-methyl]thiazole-4-carboxamide]
pest or weed control at 10 ppm ([1]; wheat seedlings): 96%
melting point: 88 to 92 °C

SMILES: CCOC(=O)c1cnn(Cc2cnn(CC(O)(O)C(F)(F)F)c2)c1 [compound 368]
pest or weed control at 50 ppm ([6]; 50 ppm test suspension): 0%
pest or weed control at 50 ppm ([1]; 0 = no control): 0%
pest or weed control at 250 ppm ([4]; 250 ppm test suspension, 0 = no control): 33%
pest or weed control at 250 ppm ([2]; 0 = no control): 0%
pest or weed control at 250 ppm ([3]; 0 = no control): 0%
melting point: 81 to 84 °C

Continued, in another order:

melting point: 59 to 62 °C
SMILES: CCOC(=O)c1cnn(Cc2c(F)c(F)c(OCC3(C(F)(F)F)OCCO3)c(F)c2F)c1 [compound 392]
pest or weed control at 10 ppm [6]: 97%
pest or weed control at 10 ppm ([1]; 0 = no control): 19%

melting point: 83.7 to 86.5 °C
SMILES: OC(O)(COc1cccc(Cn2cc(Br)cn2)c1)C(F)(F)F [compound 386]
pest or weed control at 10 ppm [6]: 84%
pest or weed control at 10 ppm ([1]; 0 = no control): 19%
